Columns and labels:
[1] = tested on: mouse myeloma cell line [GS-NSO]; test: Growth of GS-NSO myeloma cells in protein-free LS1 medium, shake flasks; format: cell-based; conditions: 5 μM tropolone, FIG. 5
Method: The LS1 medium additionally contained 2-hydroxypropyl-β-cyclodextrin [HPB; 1.2 g/l] complexed with cholesterol and fatty acids [prepared before addition to LS1 by dissolving HPB ([…]) in water and adding to an equal volume of a supplement containing cholesterol and the fatty acids previously dissolved in absolute alcohol, then agitating for 3 hours prior to centrifugation and filtering].

[2] = tested on: mouse hybridoma cell line; test: Growth of mouse hybridoma cells in transferrin-free medium with iron chelators, static 24-well culture, 3 days; format: cell-based
Method: A mouse hybridoma cell line previously subcultured in a serum-free medium containing 1 μg/ml human transferrin was centrifuged and resuspended in transferrin-free medium twice. […] 100×concentrates of the iron chelators to be tested (8-hydroxyquinoline, tropolone, mimosine, maltol or picolinic acid) were prepared in water and filter sterilised. 10 μl of each iron chelator was dispersed into wells of a 24 well costar plate and then 1 ml of cell suspension added. […] Control wells contained either 10 μl water (negative control) or 10 μl of 100 μg/ml human transferrin solution (positive control). Plates were incubated for 3 days in a humidified incubator under a 5% CO2—95% air atmosphere at 36.5° C. under static conditions. After 3 days samples of dispersed cell suspensions from individual wells were analysed using a Coulter Multisizer to determine cell concentration.

animal cells = test: Support of growth in agitated animal cell culture at low iron concentration; format: cell-based
[3] = tested on: recombinant GS-myeloma cell lines [mouse NS/O]; test: Growth and productivity of recombinant GS-myeloma NS/O cell lines in suspension culture; format: cell-based; conditions: for PEAK CELL DENSITY: 0.2 mg/l ferric ammonium citrate with 5 μM tropolone or 1 mg/l transferrin
From the text: The efficacy of using tropolone as a transferrin replacement was further investigated using recombinant GS-myeloma cell lines [mouse NS/O] expressing humanised antibodies using the glutamine synthetase (GS) expression system, [Bebbington et al., Bio/Technology, 10, 169-175; European Patent Specification No. 256055].

[4] = tested on: mouse hybridoma cell line; conditions: increasing concentrations up to 10 mg/l, transferrin-free medium, 3 days, FIG. 2A
Method: A mouse hybridoma cell line, previously subcultured in serum free medium containing human transferrin, was centrifuged and resuspended at 1.5×10^5 cells/ml in either transferrin-free or transferrin-containing serum-free medium. […] The flasks were gassed in 5% CO2—95% air atmosphere, sealed and incubated either static or on an orbital reciprocal shaking platform (120 rpm) at 36.5° C. for 3 days. Samples were then removed and cell concentration was determined by haemocytometry.

[5] = tested on: mouse hybridoma cell line; conditions: 5 μM tropolone
Method: Flasks were gassed with an atmosphere of 5% CO2—95% air and incubated on an orbital shaking platform (120 rpm) at 36.5° C. for 3 days.
After 3 days samples were withdrawn from flasks and cell concentration determined using a Coulter multisizer.

[6] = 5 μM tropolone vs 1 mg/l transferrin, 0.2 mg/l ferric ammonium citrate, three cell lines

2-hydroxypropyl-β-cyclodextrin [reference compound]
performance as carrier for cholesterol and fatty acids (cell growth) ([1]; 1.2 g/l HPB in LS1 medium vs bovine serum albumin): an effective replacement for bovine serum albumin

CC(=O)CC(C)=O [acetylacetone, reference compound]
support of cell growth (cell concentration after 3 days) ([2]; 100 μM, 0.1 mg/l ferric ammonium citrate, FIG. 1B): much less effective

O=C(O)CC(O)(CC(=O)O)C(=O)O [citrate]
support of growth in agitated cell culture (animal cells): has failed

O=C(O)[C@H](O)[C@@H](O)[C@H](O)[C@H](O)CO [gluconate]
support of growth in agitated cell culture (animal cells): has failed

O=C(O)c1ccccn1 [picolinic acid, reference compound]
support of cell growth (cell concentration after 3 days) ([2]; 50 μM, 0.1 mg/l ferric ammonium citrate, FIG. 1B): much less effective

O=c1cccccc1O [tropolone, 2-hydroxy-2,4,6-cycloheptatrien-1-one]
support of cell growth (cell concentration after 3 days) ([2]; 3 μM tropolone, 0.36 μM iron (0.1 mg/l ferric ammonium citrate), transferrin-free, FIG. 1A): as effective as 1 μg/ml of human transferrin at supporting cell growth | support of cell growth (cell concentration after 3 days) ([2]; 5 μM, 0.1 mg/l ferric ammonium citrate, FIG. 1B): effective at supporting cell growth | growth rates compared with transferrin medium [3, 6]: similar | peak viable cell concentration compared with transferrin medium [3, 6]: similar | PEAK CELL DENSITY ([3]; Cell line A): 1.51e+06 mL⁻¹ | PEAK CELL DENSITY ([3]; Cell line B): 1.49e+06 mL⁻¹ | PEAK CELL DENSITY ([3]; Cell line C): 3.17e+06 mL⁻¹ | support of cell growth ([1]; 0.2 mg/l ferric ammonium citrate, LS1 medium with HPB or BSA carrier): able to support the growth of both cultures | support of growth in agitated cell culture (animal cells): can support growth

TRANSFERRIN: human transferrin, natural iron-chelating protein used as positive control
PEAK CELL DENSITY ([3]; Cell line A): 1.3e+06 mL⁻¹ | PEAK CELL DENSITY ([3]; Cell line B): 1.46e+06 mL⁻¹ | PEAK CELL DENSITY ([3]; Cell line C): 2.62e+06 mL⁻¹

ferric ammonium citrate
effect on cell concentration in static culture [4]: support increasing cell concentrations | growth yield ([5]; data not shown): 3.3×10^7 cells/μg ferric ammonium citrate | concentration range giving maximum biomass ([5]; shaken 120 rpm, 3 days): 0.075 to 1 mg/L | time to death of myeloma cells (failed to thrive) ([3]; 0.2 mg/l ferric ammonium citrate in the absence of either tropolone or transferrin): ≤ 48 h
